# What was measured:
# [1] = system: focal cerebral ischemia (MCAO) in the Wistar rat; assay: Focal stroke model, permanent MCA and CCA occlusion; format: in vivo; settings: 0.3 mg/kg i.v. single bolus two hours after MCA occlusion; infarct measured 24 hours after MCAO
# Method: To determine the ability of the compounds of the present invention to reduce cell loss resulting from neuronal ischemia, a standard focal cerebral ischemia is induced by permanent occlusion of the left middle cerebral artery (MCA) and common carotid artery (CCA) with one hour occlusion of the right CCA in the Wistar rat. The surgeries are performed using the sub-temporal approach of A. Tamura, et al., J. Cereb. Blood Flow Metab., 1, pp. 53-60, (1981) and its modifications [K. Osborne, et al., J. Neurol Neurosurg. Psychiatry, 50, pp. 402-410 (1987) and S. Menzies, et al., Neurosurgery, 31, pp. 100-107, (1992).]
# The compound of Formula II was evaluated in the focal stroke model involving permanent occlusion of the left MCA (MCAO) and CCA (CCAO) and temporary occlusion of the right CCA in the Wistar rat [Gribkoff, et al. Nature Med. 7, pp. 471-477 (2001)]. This procedure results in a reliably large neocortical infarct volume that is measured by means of vital dye exclusion in serial slices through the brain 24 hours after MCAO. In the present test, compounds were administered using an i.v. or i.p. route of administration two hours after occlusion.
# [2] = system: cloned mammalian (mSlo or hSlo) BK channels; assay: Increase of BK-mediated outward current in Xenopus oocytes, two-electrode voltage clamp; format: cell-based; settings: 10 μM; at least 5 oocytes; mSlo or hSlo expressed in Xenopus oocytes
# Method: (§1) The ability of the compound of Formula II to open BK channels and increase whole-cell outward (K^+) BK-mediated currents was assessed under voltage-clamp conditions by determining their ability to increase cloned mammalian (mSlo or hSlo) BK—mediated outward current heterologously expressed in Xenopus oocytes [Butler, A., et al., Science, 261, pp. 221-224 (1993); and Dworetzky, S. I., et al., Mol. Brain Res., 27, pp.189-193 (1994)]. The two BK constructs employed represent nearly structurally identical homologous proteins, and have proven to be pharmacologically identical in our tests. To isolate BK current from native (background, non-BK) current, the specific and potent BK channel-blocking toxin iberiotoxin (IBTX) [Galvez, A., et al., J. Biol. Chem, 265, pp.11083-11090 (1990)] was employed at a supramaximal concentration (50 nM). The relative contribution of BK channels current to total outward current was determined by subtraction of the current remaining in the presence of IBTX (non-BK current) from the current profiles obtained in all other experimental conditions (control, drug, and wash). […] The compound of Formula II was shown in at least 5 oocytes at a concentration of 10 μM to increase BK current to 170% of control of IBTX-sensitive current. […]
# [3] = system: non-BK native currents in the oocytes; assay: Effect on non-BK native currents in oocytes (current remaining with IBTX); format: cell-based, Xenopus; settings: at the tested concentration
# Method: as §1
# [4] = system: rat traumatic brain injury (TBI) model; settings: Cheney et al. 2001; cited from earlier work
SMILES,Reduction of cortical infarct volume vs vehicle-treated control [1],"BK current, % of control of IBTX-sensitive current [2]",Effect on non-BK native currents in the oocytes [3],Reduction in edema in regions adjacent to the impact zone [4]
"COc1ccc(Cl)cc1C1(F)C(=O)Nc2cc(C(F)(F)F)ccc21 (racemic) [compound of Formula II, 3-(5-chloro-2-methoxyphenyl)-1,3-dihydro-3-fluoro-6-(trifluoromethyl)-2H-indol-2-one]",about 28%,170 % of control,did not effect,–
"COc1ccc(Cl)cc1[C@]1(F)C(=O)Nc2cc(C(F)(F)F)ccc21 [Compound of Formula (S)-II, (S)-3-(5-chloro-2-methoxy-phenyl)-3-fluoro-6-trifluoromethyl-1,3-dihydro-indol-2-one]",–,–,–,significant reductions in edema

# Reference: patent publication US6916937B2, “Carbohydrate prodrugs of fluorooxindoles” (Bristol-Myers Squibb Company, priority 2003, dated 2005)
